How the values were obtained:
Format in all cases: biochemical
[1] = tested on: NADH oxidase activity of M. smegmatis membranes; assay: NADH oxidase activity assay with M. smegmatis membranes; conditions: 0.2 mM NADH, 10 μg/ml membrane, pH 7.0
Procedure: FIG. 10 is a graph illustrating the effect of TMC207 on the NADH oxidase activity of M. smegmatis membranes. The assay was carried out in the presence of various concentrations of TMC207. The reactions contained 0.2 mM NADH and 10 μg/ml membrane in 50 mM Hepes/2 mM MgCl2 (pH 7.0) buffer.

[2] = tested on: ΔpH across M. smegmatis membranes; assay: ΔpH across the membranes monitored with pH sensitive fluorescent dye ACMA; conditions: 1 μM ACMA, 10 μg/ml M. smegmatis membrane, initiated with 1 mM NADH, pH 7.0
Procedure: FIG. 11 is a graph illustrating the effect of TMC207 on ΔpH across the membranes. ΔpH was monitored by using a pH sensitive fluorescent dye 9-amino-6-chloro-2-methoxyaridine (ACMA). The reactions contained 1 μM ACMA, 10 μg/ml M. smegmatis membrane in 5 mM Hepes/2 mM MgCl2 buffer (pH 7.0). The reaction was initiated by addition of 1 mM NADH (open symbols) and NADH was omitted in negative controls (closed symbols). Fluorescence was measured by a plate reader with 420 nm for excitation and 510 nm for emission wavelength.

[3] = molecular target: ATP synthesis activity of M. smegmatis membranes; assay: ATP synthesis assay with M. smegmatis membranes (luciferase/luciferin luminescence, 384 well plate); conditions: 10 μg/ml M. smegmatis membrane, 1 mM NADH, 25 μM ADP, 10 mM K-Pi, pH 7.0, total volume 20 μL; read-out: IC50, ATP synthesis activity normalized to the positive control

COc1nc2ccc(Br)cc2cc1[C@@H](c1ccccc1)[C@@](O)(CCN(C)C)c1cccc2ccccc12 [TMC207, (1R,2S)-1-(6-bromo-2-methoxy-3-quinolyl)-4-dimethylamino-2-(1-naphthyl)-1-phenyl-butan-2-ol]
inhibition of NADH oxidase activity ([1]; at 10 μM): did not inhibit
inhibition of NADH oxidase activity ([1]; at only high concentrations): marginal inhibition
effect on ΔpH across the membrane [2]: did not affect
IC50 [3]: 147 pM
